Holding throughout (parameters): key: 0: normal development; 1: Less damaged; 2: Slightly damaged; 3: Moderately damaged; 4: Severely damaged; 5: All killed
The test system of one assay is monochoria. Nature of the assay: Herbicidal test for paddy field. The format is in vivo, Monochoria vaginalis. The following applies: paddy field pot, 500 g/ha dropwise at 1.5 leaf stage of barnyardgrass, 3 weeks, rank vs non-treated. As to the method: (§1) Wagner pots, each having an area of 1/5000 are, were packed with Ube soil (alluvial soil) and planted with seeds or tubers of young rice plant, barnyardgrass, bulrush, flat sedge and monochoria. Then, the pots were filled with water to a depth of 3 cm.
(§2) Each wettable powder of the desired compounds (I) shown in Table 1 prepared in accordance with Example 2 was diluted with water containing a surfactant (0.05%) and subjected to dropwise addition treatment by using pipet so that an effective concentration of the compound (I) in each herbicide became 500 g/ha at 1.5 leaf stage of barnyardgrass.
(§3) These plants were controlled in a glass house at an average temperature of 25° C. for 3 weeks, and then herbicidal effects thereof were investigated.
(§4) The herbicidal effects are evaluated according to the following 6 ranks as compared with non-treated district.
(§5) (0: normal development, 1: Less damaged, 2: Slightly damaged, 3: Moderately damaged, 4: Severely damaged, 5: All killed).

In another assay the test system is blackgrass. Nature of the assay: Soil treatment test for upland field. The format is in vivo, Alopecurus aegualis. The following applies: 500 g/ha, glass house 25° C., 3 weeks.
Text: as §5
(§6) Wagner pots, each having an area of 1/5000 are, were packed with Ube soil (alluvial soil), and then each seed of corn, soybean, cotton, wheat, solgum, sugar beat, Large crabgrass, barnyardgrass, green foxtail, blackgrass, annual bluegrass, common lambsquartes, livid amaranth and velvetleaf were planted and covered with soil.
(§7) Each wettable powder of the desired compounds (I) shown in Table 1 prepared in accordance with Example 2 was diluted with water containing a surfactant (0.05%) and uniformly sprayed on the surface of each soil so that an effective concentration of the compound (I) in each herbicide became 500 g/ha. These plants were controlled in a glass house at an average temperature of 25° C. for 3 weeks, and then herbicidal effects thereof were investigated.
(§8) The herbicidal effects were evaluated according to the evaluation method described in the above (1).

The test system of another assay is young rice plant. As to the kind of experiment: Herbicidal test for paddy field. The format is in vivo. The following applies: paddy field pot, 500 g/ha dropwise at 1.5 leaf stage of barnyardgrass, 3 weeks, rank vs non-treated. Here is the method: as §1, §2, §3, §4, §5
A further assay relates to Large crabgrass. Nature of the assay: Soil treatment test for upland field. The class given is in vivo, Digitaria adscendens. The following applies: 500 g/ha, glass house 25° C., 3 weeks.
Text: as §5, §6, §7, §8

The subject of a further assay is bulrush. Nature of the assay: Herbicidal test for paddy field. The format is in vivo, Scrips juncoides. The note with it: paddy field pot, 500 g/ha dropwise at 1.5 leaf stage of barnyardgrass, 3 weeks, rank vs non-treated. As to the method:
as §1, §2, §3, §4, §5

Another assay has as its system livid amaranth. As to the kind of experiment: Soil treatment test for upland field. The class given is in vivo, Amaranthus lividus. The following applies: 500 g/ha, glass house 25° C., 3 weeks.
Text: as §5, §6, §7, §8

For assay [1], the system named is barnyardgrass. Nature of the assay: Herbicidal test for paddy field. The format is in vivo, Echinochloa crusgalli. The following applies: paddy field pot, 500 g/ha dropwise at 1.5 leaf stage of barnyardgrass, 3 weeks, rank vs non-treated. As to the method:
as §1, §2, §3, §4, §5

In the next assay the test system is green foxtail. Nature of the assay: Soil treatment test for upland field. The class given is in vivo, Setaria viridis. The following applies: 500 g/ha, glass house 25° C., 3 weeks.
Text: as §5, §6, §7, §8

The test system of a further assay is cotton. Nature of the assay: Soil treatment test for upland field. The format is in vivo. The following applies: 500 g/ha, glass house 25° C., 3 weeks.
Text: as §5, §6, §7, §8

The next assay has as its system solgum. Nature of the assay: Soil treatment test for upland field. The following applies: 500 g/ha, glass house 25° C., 3 weeks. The class given is in vivo.
Text: as §5, §6, §7, §8

Another assay has as its system sugar beat. As to the kind of experiment: Soil treatment test for upland field. The class given is in vivo. The note with it: 500 g/ha, glass house 25° C., 3 weeks.
Text: as §5, §6, §7, §8

In a further assay the test system is corn. As to the kind of experiment: Soil treatment test for upland field. The note with it: 500 g/ha, glass house 25° C., 3 weeks. The format is in vivo.
Text: as §5, §6, §7, §8

For a further assay, the system named is soybean. As to the kind of experiment: Soil treatment test for upland field. The class given is in vivo. The note with it: 500 g/ha, glass house 25° C., 3 weeks.
Text: as §5, §6, §7, §8

In a further assay the test system is wheat. Nature of the assay: Soil treatment test for upland field. The following applies: 500 g/ha, glass house 25° C., 3 weeks. The format is in vivo.
Text: as §5, §6, §7, §8

The subject of another assay is annual bluegrass. As to the kind of experiment: Soil treatment test for upland field. The following applies: 500 g/ha, glass house 25° C., 3 weeks. The format is in vivo, Poa annua.
Text: as §5, §6, §7, §8

Another assay concerns common lambsquartes. Nature of the assay: Soil treatment test for upland field. The format is in vivo, Chenopodium album. The note with it: 500 g/ha, glass house 25° C., 3 weeks.
Text: as §5, §6, §7, §8

The test system of assay [2] is barnyardgrass. As to the kind of experiment: Soil treatment test for upland field. The class given is in vivo, Echinochloa crusgalli. The note with it: 500 g/ha, glass house 25° C., 3 weeks.
Text: as §5, §6, §7, §8

The test system of another assay is velvetleaf. Nature of the assay: Soil treatment test for upland field. The class given is in vivo, Abutilon theophrasti. The following applies: 500 g/ha, glass house 25° C., 3 weeks.
Text: as §5, §6, §7, §8

The record followed here is patent publication US6706664B1, “Benzoxazole compounds, process for the preparation thereof and herbicides” (UBE Industries, Ltd., priority 1999, dated 2004).

Take `CCC(Oc1ccc(F)c(C(F)(F)F)c1)c1nc2ccc(Cl)cc2o1` (stereo not shown) [Compound 9]: the “Effect Monochoria” value in the assay on monochoria is listed as 4. The “Effects Blackgrass” value in the assay on blackgrass turned out to be 3. Also, the “Effect Young rice plant” value with young rice plant came to 0. Besides, in the assay with Large crabgrass, the “Effects Large crabgrass” value was 5. Besides, the “Effect Bulrush” value in the assay on bulrush is reported as 3. Moreover, the “Effects Livid amaranth” value in the assay with livid amaranth is listed as 5. For the same compound, in the assay with barnyardgrass [1], the “Effect Barnyardgrass” value came to 3. Moreover, in the assay with green foxtail, the “Effects Green foxtail” value came to 5. Moreover, the “Effects Cotton” value with cotton was determined as 0. The “Effects Solgum” value in the assay with solgum was 0. Further, the “Effects Sugar beat” value in the assay on sugar beat stood at 2. The “Effects Corn” value in the assay on corn is reported as 0. In addition, the “Effects Soybean” value in the assay on soybean turned out to be 0. Further, the “Effects Wheat” value with wheat is recorded as 0. Further, the “Effects Annual bluegrass” value with annual bluegrass came out at 4. The “Effects Common lambsquarters” value with common lambsquartes came out at 3. The “Effects Barnyardgrass” value in the assay on barnyardgrass [2] came to 4.

Consider `CCC(Oc1ccc(F)c(C(F)(F)F)c1)c1nc2cc(C#N)c(Cl)cc2o1` (stereo not shown) [Compound 517], for which the “Effect Monochoria” value in the assay with monochoria was 3. In addition, the “Effect Young rice plant” value in the assay on young rice plant worked out at 2. Besides, in the assay on Large crabgrass, the “Effects Large crabgrass” value stood at 3. The “Effect Bulrush” value with bulrush was 3. Also, the “Effects Livid amaranth” value in the assay with livid amaranth is recorded as 5. Besides, the “Effect Barnyardgrass” value in the assay on barnyardgrass [1] is recorded as 3. Moreover, the “Effects Velvetleaf” value in the assay on velvetleaf is 3. Besides, the “Effects Green foxtail” value with green foxtail worked out at 4. Moreover, in the assay on cotton, the “Effects Cotton” value turned out to be 0. Further, the “Effects Solgum” value in the assay with solgum was determined as 0. The “Effects Sugar beat” value in the assay on sugar beat was found to be 5. The “Effects Corn” value in the assay on corn is 0. For the same compound, in the assay on soybean, the “Effects Soybean” value worked out at 0. Besides, the “Effects Wheat” value with wheat is 0. Further, in the assay with common lambsquartes, the “Effects Common lambsquarters” value is 3. Besides, the “Effects Barnyardgrass” value in the assay with barnyardgrass [2] was found to be 3.

As for `CCC(Oc1cccc(C(F)(F)F)c1)c1nc2ccc(Cl)cc2o1` (stereo not shown) [Compound 10], the “Effect Monochoria” value in the assay with monochoria is recorded as 1. The “Effects Blackgrass” value with blackgrass was 2. In the assay on young rice plant, the “Effect Young rice plant” value amounted to 0. Moreover, the “Effects Large crabgrass” value in the assay on Large crabgrass is on record as 5. Also, the “Effect Bulrush” value in the assay with bulrush stood at 3. The “Effects Livid amaranth” value in the assay on livid amaranth is on record as 4. Besides, the “Effect Barnyardgrass” value in the assay with barnyardgrass [1] is 4. The “Effects Green foxtail” value in the assay with green foxtail is listed as 4. Also, the “Effects Cotton” value with cotton amounted to 0. Moreover, the “Effects Solgum” value with solgum is recorded as 0. Moreover, the “Effects Sugar beat” value in the assay on sugar beat is 0. In addition, the “Effects Corn” value in the assay with corn was 0. Moreover, in the assay on soybean, the “Effects Soybean” value stood at 0. Moreover, the “Effects Wheat” value with wheat is listed as 0. Also, in the assay with annual bluegrass, the “Effects Annual bluegrass” value came to 4. Moreover, in the assay on common lambsquartes, the “Effects Common lambsquarters” value turned out to be 2. Besides, in the assay on barnyardgrass [2], the “Effects Barnyardgrass” value was found to be 2.

Turning to `CCC(Oc1ccc(F)c(C(F)(F)F)c1)c1nc2ccc(F)cc2o1` (stereo not shown) [Compound 27], the “Effect Monochoria” value with monochoria is 5. For the same compound, the “Effect Young rice plant” value in the assay with young rice plant worked out at 0. The “Effects Large crabgrass” value in the assay on Large crabgrass was 4. For the same compound, the “Effect Bulrush” value in the assay on bulrush stood at 4. For the same compound, the “Effects Livid amaranth” value in the assay on livid amaranth amounted to 5. For the same compound, in the assay on barnyardgrass [1], the “Effect Barnyardgrass” value is reported as 1. Moreover, in the assay on velvetleaf, the “Effects Velvetleaf” value turned out to be 1. In addition, in the assay on green foxtail, the “Effects Green foxtail” value was found to be 4. Moreover, the “Effects Cotton” value with cotton is recorded as 0. For the same compound, the “Effects Solgum” value with solgum was found to be 0. The “Effects Sugar beat” value in the assay with sugar beat is 1. Further, the “Effects Corn” value with corn is on record as 0. Also, the “Effects Soybean” value with soybean came to 0. Besides, the “Effects Wheat” value with wheat is 0. The “Effects Annual bluegrass” value with annual bluegrass stood at 3. In addition, in the assay on common lambsquartes, the “Effects Common lambsquarters” value is 3. Further, the “Effects Barnyardgrass” value in the assay on barnyardgrass [2] amounted to 1.
